Several values for one entry are separate records, joined by “and”; a condition that tells them apart may be missing. Equal values may be shown once.
Columns and labels:
AXL kinase = target: T1, AXL kinase (Homo sapiens, UniProt P30530); assay: AXL kinase inhibition, ELISA; assay type: biochemical; details: for inhibition at 0.1 µM: read-out: inhibition rate AXL kinase; for IC50: IC50 AXL kinase, ELISA, mean ± SD of two independent experiments
T1 sequence (P30530 26-894): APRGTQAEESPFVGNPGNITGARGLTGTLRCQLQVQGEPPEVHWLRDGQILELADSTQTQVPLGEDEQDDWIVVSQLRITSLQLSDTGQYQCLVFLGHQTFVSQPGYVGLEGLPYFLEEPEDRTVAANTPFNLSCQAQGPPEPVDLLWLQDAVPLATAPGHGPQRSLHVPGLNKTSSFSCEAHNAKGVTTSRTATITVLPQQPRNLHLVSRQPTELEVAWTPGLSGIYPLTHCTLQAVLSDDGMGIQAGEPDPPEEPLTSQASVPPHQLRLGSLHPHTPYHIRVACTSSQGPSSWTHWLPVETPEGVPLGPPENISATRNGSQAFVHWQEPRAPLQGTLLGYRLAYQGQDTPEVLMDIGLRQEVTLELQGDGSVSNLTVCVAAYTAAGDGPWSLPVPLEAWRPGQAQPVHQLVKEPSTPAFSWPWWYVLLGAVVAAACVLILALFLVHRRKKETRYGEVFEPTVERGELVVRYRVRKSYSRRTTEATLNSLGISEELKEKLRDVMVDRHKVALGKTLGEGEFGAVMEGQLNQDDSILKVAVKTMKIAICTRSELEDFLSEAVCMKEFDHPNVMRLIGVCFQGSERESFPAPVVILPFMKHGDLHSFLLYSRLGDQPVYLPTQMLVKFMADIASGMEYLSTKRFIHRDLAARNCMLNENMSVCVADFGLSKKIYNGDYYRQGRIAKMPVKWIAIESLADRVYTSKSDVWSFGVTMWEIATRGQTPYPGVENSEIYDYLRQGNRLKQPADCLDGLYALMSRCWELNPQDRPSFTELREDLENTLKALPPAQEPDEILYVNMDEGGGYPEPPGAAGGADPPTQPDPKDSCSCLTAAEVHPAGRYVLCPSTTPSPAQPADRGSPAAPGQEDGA

BaF3/TEL-AXL cells = assay: BaF3/TEL-AXL cell viability; assay type: cell-based; details: 48 h, read-out: IC50 Cell viability
[1] = Pharmacokinetics in ICR mice; assay type: in vivo; details: mouse, serum

inhibition at 0.1 µM (AXL kinase)	IC50 (BaF3/TEL-AXL cells)	IC50 (AXL kinase)	SMILES	also measured
–	< 0.0001 µM	–	COc1cc2ncnc(Oc3ccc(NC(=O)c4c5n(n(-c6ccccc6)c4=O)CCCC5)cc3F)c2cc1OC [Compound 16]	–
–	< 0.0001 µM	–	COc1cc2ncnc(Oc3ccc(NC(=O)c4c5n(n(-c6ccccc6F)c4=O)CCCC5)cc3F)c2cc1OC [Compound 17]	–
–	< 0.0001 µM	–	COc1cc2ncnc(Oc3ccc(NC(=O)c4c5n(n(-c6ccc(F)cc6)c4=O)CCCC5)cc3F)c2cc1OC [Compound 19]	–
–	0.007 ± 0.0042 µM	0.0105 ± 0.0005 µM	COc1cc2ncnc(Oc3ccc(NC(=O)c4c5n(n(-c6ccccc6Cl)c4=O)CCCC5)cc3F)c2cc1OC [Compound 20]	–
–	–	0.0426 ± 0.0062 µM	COc1cc2ncnc(Oc3ccc(NC(=O)c4c5n(n(-c6ccc(Cl)cc6)c4=O)CCCC5)cc3F)c2cc1OC [Compound 21]	–
–	0.0076 ± 0.0041 µM	0.0157 ± 0.0017 µM	COc1cc2ncnc(Oc3ccc(NC(=O)c4c5n(n(-c6ccccc6C)c4=O)CCCC5)cc3F)c2cc1OC [Compound 22]	–
–	–	0.0273 ± 0.0026 µM	COc1cc2ncnc(Oc3ccc(NC(=O)c4c5n(n(-c6ccc(C)cc6)c4=O)CCCC5)cc3F)c2cc1OC [Compound 23]	–
–	0.0023 ± 0.0004 µM	0.01 ± 0.0014 µM	COc1cc2ncnc(Oc3ccc(NC(=O)c4c5n(n(-c6ccccc6)c4=O)CCCC5)c(F)c3)c2cc1OC [Compound 29]	–
–	< 0.0001 µM	0.0134 ± 0.0008 µM	COc1cc2ncnc(Oc3ccc(NC(=O)c4c5n(n(-c6ccccc6F)c4=O)CCCC5)c(F)c3)c2cc1OC [Compound 30]	–
–	–	0.0305 ± 0.0049 µM	COc1cc2ncnc(Oc3ccc(NC(=O)c4c5n(n(-c6ccc(F)cc6)c4=O)CCCC5)c(F)c3)c2cc1OC [Compound 31]	–
–	1.65 ± 0.444 µM	0.0169 ± 0.0025 µM	COc1cc2ncnc(Oc3ccc(NC(=O)c4c5n(n(-c6ccccc6)c4=O)CCCC5)cc3Cl)c2cc1OC [Compound 33]	–
–	–	0.0309 ± 0.0014 µM	COc1cc2ncnc(Oc3ccc(NC(=O)c4c5n(n(-c6ccccc6F)c4=O)CCCC5)cc3Cl)c2cc1OC [Compound 34]	–
23.2%	–	–	COc1cc2ncnc(Oc3ccc(NC(=O)c4c5n(n(-c6ccccc6)c4=O)CCCC5)cc3C)c2cc1OC [Compound 37]	–
32.3%	–	–	COc1cc2ncnc(Oc3ccc(NC(=O)c4c5n(n(-c6ccccc6F)c4=O)CCCC5)cc3C)c2cc1OC [Compound 38]	–
35.7%	–	–	COc1cc2ncnc(Oc3ccc(NC(=O)c4c5n(n(-c6cc(F)ccc6F)c4=O)CCCC5)cc3C)c2cc1OC [Compound 40]	–
56.4%	–	–	COc1cc2ncnc(Oc3ccc(NC(=O)c4c5n(n(-c6ccccc6)c4=O)CCCC5)cc3OC)c2cc1OC [Compound 41]	–
28%	–	–	COc1cc2ncnc(Oc3ccc(NC(=O)c4c5n(n(-c6ccccc6F)c4=O)CCCC5)cc3OC)c2cc1OC [Compound 42]	–
47.9%	–	–	COc1cc2ncnc(Oc3ccc(NC(=O)c4c5n(n(-c6ccccc6F)c4=O)CCCC5)cc3)c2cc1OC [Compound 49]	–
–	0.0078 ± 0.0007 µM	–	COc1cc2ncnc(Oc3ccc(NC(=O)c4c5n(n(-c6cc(F)ccc6F)c4=O)CCCC5)cc3)c2cc1OC [Compound 50]	–
–	0.0033 ± 0.0014 µM	0.0168 ± 0.0035 µM	COc1cc2ncnc(Oc3ccc(NC(=O)c4c5n(n(-c6ccccc6)c4=O)CCCC5)nc3)c2cc1OC [Compound 51]	–
41.4%	–	–	COc1cc2ncnc(Oc3ccc(NC(=O)c4c5n(n(-c6ccccc6F)c4=O)CCCC5)c4ccccc34)c2cc1OC [Compound 53]	–
50.4%	–	–	COc1cc2ncnc(Oc3ccc(NC(=O)c4c5n(n(-c6cc(F)ccc6F)c4=O)CCCC5)c4ccccc34)c2cc1OC [Compound 55]	–
–	0.001 ± 0.0002 µM	0.004 ± 0.0004 µM	COc1cc2nccc(Oc3ccc(NC(=O)c4c5n(n(-c6ccccc6)c4=O)CCCC5)cc3)c2cc1OC [Compound 56]	–
–	< 0.0002 µM	< 0.01 µM and 0.0012 µM	COc1cc2nccc(Oc3ccc(NC(=O)c4c5n(n(-c6cc(F)ccc6F)c4=O)CCCC5)cc3)c2cc1OC [Compound 60]	–
–	0.0007 ± 0.0003 µM	< 0.01 µM and 0.0061 µM	COc1cc2nccc(Oc3ccc(NC(=O)c4c5n(n(-c6ccc(F)cc6F)c4=O)CCCC5)cc3)c2cc1OC [Compound 62]	–

The remaining lines, values behind:

SMILES	inhibition at 0.1 µM (AXL kinase)	IC50 (BaF3/TEL-AXL cells)	IC50 (AXL kinase)	also measured
O=C(Nc1ccc(Oc2ccc3nncn3n2)cc1)c1c2n(n(-c3ccccc3)c1=O)CCCC2 [Compound 12]	-17.7%	–	–	–
O=C(Nc1ccc(Oc2ccn3nccc3n2)cc1)c1c2n(n(-c3ccccc3)c1=O)CCCC2 [Compound 13]	-18.9%	–	–	–
COc1nc(OC)nc(Oc2ccc(NC(=O)c3c4n(n(-c5ccccc5)c3=O)CCCC4)cc2)n1 [Compound 14]	-6%	–	–	–
COc1cc2ncnc(Oc3ccc(NC(=O)c4c5n(n(-c6cc(F)ccc6F)c4=O)CCCC5)cc3F)c2cc1OC [Compound 24]	–	< 0.0001 µM	–	AUC(0-inf) ([1]; iv, 5 mg/kg): 49.1 µg·h/mL; AUC(0-t) ([1]; iv, 5 mg/kg): 48.9 µg·h/mL; clearance ([1]; iv, 5 mg/kg): 0.102 L/h/kg; half-life ([1]; iv, 5 mg/kg): 3.38 h; AUC(0-inf) ([1]; po, 10 mg/kg): 14.2 µg·h/mL; AUC(0-t) ([1]; po, 10 mg/kg): 13.5 µg·h/mL; Cmax ([1]; po, 10 mg/kg): 1.49 µg/mL; Tmax ([1]; po, 10 mg/kg): 2 h; bioavailability ([1]; po, 10 mg/kg): 13.8%; half-life ([1]; po, 10 mg/kg): 6.77 h
COc1cc2ncnc(Oc3ccc(NC(=O)c4c5n(n(-c6cc(C)ccc6C)c4=O)CCCC5)cc3F)c2cc1OC [Compound 25]	–	–	0.0784 ± 0.0021 µM	–
COc1cc2ncnc(Oc3ccc(NC(=O)c4c5n(n(-c6ccc(F)cc6F)c4=O)CCCC5)cc3F)c2cc1OC [Compound 27]	–	–	0.0251 ± 0.0016 µM	–
COc1cc2ncnc(Oc3ccc(NC(=O)c4c5n(n(-c6cc(F)ccc6F)c4=O)CCCC5)c(F)c3)c2cc1OC [Compound 32]	–	–	0.037 ± 0.0014 µM	–
COc1cc2ncnc(Oc3ccc(NC(=O)c4c5n(n(-c6ccc(F)cc6)c4=O)CCCC5)cc3Cl)c2cc1OC [Compound 35]	–	–	0.0196 ± 0.0019 µM	–
COc1cc2ncnc(Oc3ccc(NC(=O)c4c5n(n(-c6cc(F)ccc6F)c4=O)CCCC5)cc3Cl)c2cc1OC [Compound 36]	–	3.63 ± 0.494 µM	0.0066 ± 0.0029 µM	–
COc1cc2ncnc(Oc3ccc(NC(=O)c4c5n(n(-c6ccc(F)cc6)c4=O)CCCC5)cc3C)c2cc1OC [Compound 39]	15.6%	–	–	–
COc1cc2ncnc(Oc3ccc(NC(=O)c4c5n(n(-c6ccc(F)cc6)c4=O)CCCC5)cc3OC)c2cc1OC [Compound 43]	19.9%	–	–	–
COc1cc2ncnc(Oc3ccc(NC(=O)c4c5n(n(-c6ccccc6)c4=O)CCCC5)cc3C(F)(F)F)c2cc1OC [Compound 45]	59.4%	–	–	–
COc1cc2ncnc(Oc3ccc(NC(=O)c4c5n(n(-c6ccccc6)c4=O)CCCC5)c4ccccc34)c2cc1OC [Compound 52]	41%	–	–	–
COc1cc2ncnc(Oc3ccc(NC(=O)c4c5n(n(-c6ccc(F)cc6)c4=O)CCCC5)c4ccccc34)c2cc1OC [Compound 54]	39%	–	–	–
COc1cc2nccc(Oc3ccc(NC(=O)c4c5n(n(-c6ccccc6)c4=O)CCCC5)cc3F)c2cc1OC [Compound 57]	–	< 0.0001 µM	–	–
COc1cc2nccc(Oc3ccc(NC(=O)c4c5n(n(-c6ccccc6)c4=O)CCCC5)cn3)c2cc1OC [Compound 58]	50.9%	–	–	–
COc1cc2nccc(Oc3ccc(NC(=O)c4c5n(n(-c6cc(F)ccc6Cl)c4=O)CCCC5)cc3)c2cc1OC [Compound 61]	–	< 0.0002 µM	< 0.01 µM and 0.0007 µM	–
COc1cc2nccc(Oc3ccc(NC(=O)c4c5n(n(-c6ccc(F)cc6Cl)c4=O)CCCC5)cc3)c2cc1OC [Compound 63]	–	< 0.0002 µM	< 0.01 µM and 0.0023 µM	–
